Source: article PMC10174255, “Drug repurposing approach against chikungunya virus: an in vitro and in silico study” (Frontiers in Cellular and Infection Microbiology, 2023)

Experiments:
CHIKV [1] = test: Immunofluorescence assay (percent infected cells); conditions: posttreatment, IFA, compared to VC
CHIKV [2] = test: Time-of-addition assay (extra- and intracellular virus, FFU)
CHIKV [3] = test: Viral RNA copy number by quantitative RT-PCR
CHIKV [4] = test: Antiviral assay (pre-, co-, posttreatment) with FFU readout; conditions: for anti chikungunya activity: Vero CCL-81, any treatment condition; for IC50 / anti-CHIKV activity in primary screening: FFU; for IC50: Vero CCL-81; for anti-CHIKV activity in primary screening: highest nontoxic concentration
Vero CCL-81 cells = test: MTT cytotoxicity assay; conditions: for The maximum nontoxic concentration used for primary screening of drugs against CHIKV: Vero CCL-81, ≥90% cell viability
MTT cytotoxicity assay = conditions: African green monkey
CHIKV [5] = test: Western blot of viral capsid (C) protein; format: cell-based, Chikungunya virus; conditions: posttreatment, maximal non-toxic concentration, normalized to β-actin
Procedure: To investigate the expression of viral proteins, a western blotting assay was performed. […] The cell cultures were subjected to different types of treatment with various concentrations of the appropriate drugs. Cells were lysed using the RIPA buffer and 2X laemmli buffer at 1:1 ratio. The cell culture lysates from uninfected, infected without treatment and infected treated cells were subjected to an electrophoretic run on 10% discontinuous SDS polyacrylamide gels followed by electroblotting onto nitrocellulose membranes. The membranes were then blocked for 30 minutes using phosphate-buffered saline (PBS) containing 5% bovine serum albumin. […] This monoclonal antibody is known to react with the capsid protein of CHIKV and was characterized and purified as described earlier ([Damle et al., 2016]). The membranes were thoroughly rinsed with tris-buffered saline with 0.1% Tween 20 (TBST) after overnight incubation (5 washes totaling a 20-minute soak with rocking), and then they were incubated with the appropriate horseradish peroxidase (HRP) conjugated anti-mouse IgG antibody for two hours while rocking. For developing the blot, ECL substrate (Thermo Scientific) was used in the dark. The image of the blot was captured using the Gel Documentation system (BioRad™, USA), and analysis was done. To quantify the protein signals (density) of the viral protein and housekeeping protein in each lane, ImageJ software was used. After calculating the signal values for each band, the background signals were subtracted from the signal. The relative level of viral protein was normalized to beta-actin (monoclonal antibody 15G5A11/E2, catalog no:MA1-140, Invitrogen, USA). Signal densities were determined using ImageJ software and were plotted using GraphPad Prism software version 7.

[6] = posttreatment, 6.25 µM, VC 8.870
[7] = posttreatment, 12.5 µM, VC 8.870

Row | Structure (SMILES) | anti chikungunya activity (CHIKV [4]) | IC50 (CHIKV [4]; posttreatment) [µM] | anti-CHIKV activity in primary screening (CHIKV [4]; posttreatment) | Selectivity Index (SI) (CHIKV [4]; pretreatment) | IC50 (CHIKV [4]; pretreatment) [µM] | anti-CHIKV activity in primary screening (CHIKV [4]; pretreatment) | The maximum nontoxic concentration used for primary screening of drugs against CHIKV (Vero CCL-81 cells) [µM] | CC50 (MTT cytotoxicity assay) [µM] | effect on viral RNA copy number/titre (CHIKV [3]; posttreatment) | also measured
1 | Nc1nc(F)nc2nc[nH]c12 [2-Fluoroadenine] | exhibit anti chikungunya activity | 7.59 | effective | 45.56 | 9.59 | effective | 100 | 437 ± 320 | – | reduction in percentage of infected cells (CHIKV [1]): prominently observed; reduction in intra- and extracellular virus titer (CHIKV [2]; 100 µM, time of addition 0, 3, 6 h): ~ 1 log10; reduction in intra- and extracellular virus titers (CHIKV [2]; 25 and 50 µM): Mild reduction; effectiveness at time points of addition (CHIKV [2]; added 0, 3 and 6 h post infection): effective at all three time points; effect on viral RNA copy number (CHIKV [3]; pretreatment, 100 µM): significant reduction; mean log10 viral titer/ml (CHIKV [4]; posttreatment, 50 µM, VC 8.870): 7.686 log10 FFU/ml; mean log10 viral titer/ml (CHIKV [4]; pretreatment, 50 µM, VC 8.665): 7.284 log10 FFU/ml; mean log10 viral titer/ml (CHIKV [4]; pretreatment, 100 µM, VC 8.665): 7.185 log10 FFU/ml; viral antigen (C protein) expression (CHIKV [5]): significant reduction
2 | CC(C)Cn1c(=O)n(C)c(=O)c2[nH]cnc21 [3-isobutyl 1-methylxanthine] | – | – | – | – | – | – | 50 | 177 ± 21.7 | – | –
3 | C[C@@]12CCC[C@H]1[C@@H]1CC[C@H]3C[C@@H](O)CC[C@]3(C)[C@H]1CC2 [5-α-3-β-androstanol] | – | – | – | – | – | – | 12.5 | – | – | CC50 (Vero CCL-81 cells; read-out: CC50 value ± SE, Vero CCL-81, MTT, 0.78-200 µM): 23.5 ± 0.856 µM
4 | COc1cccc2c1C(=O)c1c(O)c3c(c(O)c1C2=O)C[C@@](O)(C(=O)CO)C[C@@H]3O[C@H]1C[C@H](N)[C@H](O)[C@H](C)O1 [Doxorubicin] | exhibit anti chikungunya activity | 6.41 | effective | 16.95 | 6.9 | effective | 25 | 117 ± 8.25 | no decrease | reduction in percentage of infected cells (CHIKV [1]): prominently observed; effect on intra- and extracellular virus particles (CHIKV [2]; 25 µM, added at 0, 3 and 6 h): exerted reduction; reduction in intracellular virus titer (CHIKV [2]; 12.5 and 6.25 µM): not as prominent as extracellular virus titer; effect on viral RNA copy number/titre (CHIKV [3]; pretreatment): no decrease; Selectivity Index (SI) (CHIKV [4]; posttreatment): 18.24; mean log10 viral titer/ml (CHIKV [4]; [6]): 7.758 log10 FFU/ml; mean log10 viral titer/ml (CHIKV [4]; [7]): 7.509 log10 FFU/ml; mean log10 viral titer/ml (CHIKV [4]; posttreatment, 25 µM, VC 8.870): 7.376 log10 FFU/ml; mean log10 viral titer/ml (CHIKV [4]; pretreatment, 12.5 µM, VC 8.665): 7.460 log10 FFU/ml; mean log10 viral titer/ml (CHIKV [4]; pretreatment, 25 µM, VC 8.665): 7.333 log10 FFU/ml; viral antigen (C protein) expression (CHIKV [5]): significant reduction
5 | COc1cc2c(cc1Cc1cccc(Cl)c1F)c(=O)c(C(=O)O)cn2[C@H](CO)C(C)C [Elvitegravir] | – | – | – | – | – | – | 6.25 | 12.7 ± 1.52 | – | –
6 | CC[C@H]1CN2CCc3cc(OC)c(OC)cc3[C@@H]2C[C@@H]1C[C@H]1NCCc2cc(OC)c(OC)cc21 [Emetine] | exhibit anti chikungunya activity | 4.24 | effective | – | – | – | 200 | > 200 | No significant reduction | effect on intra- and extracellular virus titre (CHIKV [2]; 200 µM, added at 6 h): significant reduction; effect on intra- and extracellular virus titer (CHIKV [2]; 50-200 µM, added at 0 and 3 h): significantly reduced; mean log10 viral titer/ml (CHIKV [4]; posttreatment, 50 µM, VC 8.870): 7.802 log10 FFU/ml; mean log10 viral titer/ml (CHIKV [4]; posttreatment, 100 µM, VC 8.870): 7.550 log10 FFU/ml; mean log10 viral titer/ml (CHIKV [4]; posttreatment, 200 µM, VC 8.870): 7.306 log10 FFU/ml
7 | O=C(O)Cc1ccc(-c2ccccc2)cc1 [Felbinac] | exhibit anti chikungunya activity | – | – | 2205.88 | 0.238 | effective | 3.125 | 525 ± 200 | – | effect on viral RNA copy number/titre (CHIKV [3]; pretreatment): did not have any effect; mean log10 viral titer/ml (CHIKV [4]; pretreatment, 1.56 µM, VC 8.665): 7.175 log10 FFU/ml; mean log10 viral titer/ml (CHIKV [4]; pretreatment, 3.125 µM, VC 8.665): 7.040 log10 FFU/ml
8 | Nc1cccc2c1CN(C1CCC(=O)NC1=O)C2=O (stereo not shown) [Lenalidomide] | – | – | – | – | – | – | 200 | – | – | –
9 | CC(C)(C)C#Cc1cc(N(C(=O)[C@H]2CC[C@H](C)CC2)[C@H]2CC[C@H](O)CC2)c(C(=O)O)s1 [Lomibuvir] | exhibit anti chikungunya activity | 1.59 | effective | – | – | – | 6.25 | 31.5 ± 9.63 | no change observed | effect on virus titer (CHIKV [2]; 3.125 µM, added at 3 and 6 h): small but significant reduction; effect on intra- and extracellular virus titer (CHIKV [2]; 6.25 µM, added at 0, 3 and 6 h): significantly reduced; Selectivity Index (SI) (CHIKV [4]; posttreatment): 19.83; mean log10 viral titer/ml (CHIKV [4]; [6]): 7.655 log10 FFU/ml
10 | Cc1ccc(NC(=O)c2ccc(CN3CCN(C)CC3)cc2)cc1Nc1nc(-c2cccnc2)cs1 [Masitinib] | – | – | – | – | – | – | – | – | – | cytotoxicity (Vero CCL-81 cells; Vero CCL-81, even at lowest concentrations): highly toxic
11 | CC(C)(C(=O)c1cccnc1)c1cccnc1 [Metyrapone] | exhibit anti chikungunya activity | – | – | 457.80 | 12.2 | effective | 200 | 5600 ± 6100 | – | log10 viral RNA copy number (CHIKV [3]; pretreatment, 200 µM, VC 9.670): 8.984; mean log10 viral titer/ml (CHIKV [4]; pretreatment, 100 µM, VC 8.665): 7.136 log10 FFU/ml; mean log10 viral titer/ml (CHIKV [4]; pretreatment, 200 µM, VC 8.665): 7.115 log10 FFU/ml
12 | Cc1nc2c(O)cccc2c(=O)[nH]1 [NU-1025] | – | – | – | – | – | – | 100 | – | – | –
13 | Oc1ccc(/C=C/c2cc(O)cc(O)c2)cc1 [Resveratrol] | exhibit anti chikungunya activity | 1.72 | effective | – | – | – | 12.5 | 40.9 ± 4.57 | No reduction | reduction in percentage of infected cells (CHIKV [1]): prominently observed; effect on extracellular titer of virus (CHIKV [2]; 6.25 µM, added at 3 and 6 h): mild but significant reduction; effect on intra- and extracellular virus titer (CHIKV [2]; 12.5 µM, added at 0, 3 and 6 h): significant decrease; Selectivity Index (SI) (CHIKV [4]; posttreatment): 23.74; mean log10 viral titer/ml (CHIKV [4]; [6]): 8.261 log10 FFU/ml; mean log10 viral titer/ml (CHIKV [4]; [7]): 7.486 log10 FFU/ml
